Consider 3 molecules from paper PMC12250302, “Synthesis, Antimicrobial Activities, and Model of Action of Novel Tetralone Derivatives Containing Aminoguanidinium Moiety” (International Journal of Molecular Sciences, 2025).

Assay in all cases: MIC and MBC testing, broth microdilution
(In general: In broth dilution the organism is exposed to a series of concentrations in liquid medium.)

One assay has as its system E. coli ATCC 25922. In kind it is cell-based, Escherichia coli. As to conditions: Escherichia coli; for MIC: ATCC25922, 18 h, read-out: MIC; for MBC: ATCC25922, read-out: MBC. The source says: (§1) The minimum inhibitory concentrations (MICs) and minimum bactericidal concentrations (MBCs) of the synthesized compounds effective against ESKAPE strains, S. aureus clinical isolates, and MRSA were investigated by the broth dilution method. Levofloxacin is a broad-spectrum antibacterial agent that is widely used in the treatment of ESKAPE infections. Therefore, levofloxacin was selected as the positive control for the preliminary activity screening. DMSO (0.1%) was selected as the negative control.
(§2) The minimum inhibitory concentration (MIC) of all synthesized compounds was tested by the broth microdilution method. In brief, compounds dissolved in DMSO were diluted twice continuously in a 96-well plate with MH broth. The ESKAPE pathogens (E. coli ATCC 25922, S. aureus ATCC 29213, K. pneumoniae ATCC 700603, A. baumannii ATCC 19606, P. aeruginosa ATCC 27853, and E. faecium ATCC 35667), clinical S. aureus isolates (LMY45, LMY46, LMY47, and LMY48) and methicillin-resistant Staphylococcus aureus (MRSA-1 and MRSA-2) were cultured in MH broth to logarithmic growth phase and then diluted to 1 × 10^6 CFU/mL in MH broth. Subsequently, the diluted bacterial solution was mixed with the diluted compound solution in a 96-well plate and incubated at 37 °C for a duration of 18 h. The MIC of the compounds was recorded as the lowest concentration at which no visible growth was observed. […] Each concentration was replicated thrice.

In a further assay the test system is S. aureus ATCC 29213. The assay is classed as cell-based, Staphylococcus aureus. As to conditions: Staphylococcus aureus, ATCC29213, S. aureus ATCC 29213; for MIC: 18 h, read-out: MIC; for MBC: read-out: MBC.
Text: as §1, §2

Assay [1] has as its system K. pneumoniae ATCC 700603. In kind it is cell-based, Klebsiella pneumoniae. The note with it: Klebsiella pneumoniae; for MIC: ATCC700603, 18 h, read-out: MIC; for MBC: ATCC700603, read-out: MBC.
Text: as §1, §2

Assay [2] relates to clinical S. aureus isolate LMY48. The assay is classed as cell-based, Staphylococcus aureus. The note with it: Staphylococcus aureus, LMY48; for MIC: 18 h, read-out: MIC; for MBC: read-out: MBC. As to the method: (§3) Furthermore, the MBC values of the compounds were detected.
as §2, with “h.” for “h. The MIC of the compounds was recorded as the lowest concentration at which no visible growth was observed.”

In a further assay the test system is MRSA-2. The assay is classed as cell-based, Staphylococcus aureus. The note with it: Staphylococcus aureus, MRSA-2; for MIC: 18 h, read-out: MIC; for MBC: read-out: MBC. As to the method: as §3
as §2, with “h.” for “h. The MIC of the compounds was recorded as the lowest concentration at which no visible growth was observed.”

In assay [3] the test system is clinical S. aureus isolate LMY47. In kind it is cell-based, Staphylococcus aureus. The note with it: Staphylococcus aureus, LMY47; for MIC: 18 h, read-out: MIC; for MBC: read-out: MBC. As to the method: as §3
as §2, with “h.” for “h. The MIC of the compounds was recorded as the lowest concentration at which no visible growth was observed.”

Assay [4] deals with clinical S. aureus isolate LMY46. The assay is classed as cell-based, Staphylococcus aureus. As to conditions: Staphylococcus aureus, LMY46; for MIC: 18 h, read-out: MIC; for MBC: read-out: MBC. As to the method:
as §3
as §2, with “h.” for “h. The MIC of the compounds was recorded as the lowest concentration at which no visible growth was observed.”

In another assay the test system is MRSA-1. The assay is classed as cell-based, Staphylococcus aureus. As to conditions: Staphylococcus aureus, MRSA-1; for MIC: 18 h, read-out: MIC; for MBC: read-out: MBC. How it is done: as §3
as §2, with “h.” for “h. The MIC of the compounds was recorded as the lowest concentration at which no visible growth was observed.”

Assay [5] relates to clinical S. aureus isolate LMY45. In kind it is cell-based, Staphylococcus aureus. As to conditions: Staphylococcus aureus, LMY45; for MIC: 18 h, read-out: MIC; for MBC: read-out: MBC. As to the method: as §3
as §2, with “h.” for “h. The MIC of the compounds was recorded as the lowest concentration at which no visible growth was observed.”

Another assay deals with E. faecium ATCC 35667. In kind it is cell-based, Enterococcus faecium. As to conditions: Enterococcus faecium, ATCC35667, E. faecium ATCC 35667; for MIC: 18 h, read-out: MIC; for MBC: read-out: MBC.
Text: as §1, §2

A further assay relates to P. aeruginosa ATCC 27853. The assay is classed as cell-based, Pseudomonas aeruginosa. The note with it: Pseudomonas aeruginosa; for MIC: ATCC27853, 18 h, read-out: MIC; for MBC: ATCC27853, read-out: MBC.
Text: as §1, §2

Another assay relates to A. baumannii ATCC 19606. The assay is classed as cell-based, Acinetobacter baumannii. The note with it: Acinetobacter baumannii; for MIC: ATCC19606, 18 h, read-out: MIC; for MBC: ATCC19606, read-out: MBC.
Text: as §1, §2

≈ marks a conversion by molar mass, not a printed value.

A word on the MIC: it is the smallest concentration in the dilution series that meets the test's criterion for growth inhibition. For orientation: MBC means the lowest tested concentration that kills the bacteria rather than only halting them. Turning to `[H]/N=C(\N)NN=C1CCCc2cc(OCc3ccccc3F)ccc21` [Compound 1A, (E)-2-(6-((2-fluorobenzyl)oxy)-3,4-dihydronaphthalen-1(2H)-ylidene)hydrazine-1-carboximidamide], the MIC worked out at 8 µg/mL (≈ 24.5 µM) with E. coli ATCC 25922; 4 µg/mL (≈ 12.3 µM) in the assay with S. aureus ATCC 29213; 16 µg/mL (≈ 49 µM) in assay [1]; 2 µg/mL (≈ 6.13 µM) in assay [2]; 2 µg/mL (≈ 6.13 µM) in the assay on MRSA-2; 2 µg/mL (≈ 6.13 µM) in assay [3]. The MIC in [4] worked out at 2 µg/mL (≈ 6.13 µM); with MRSA-1, 2 µg/mL (≈ 6.13 µM); in [5], 2 µg/mL (≈ 6.13 µM); with E. faecium ATCC 35667, 4 µg/mL (≈ 12.3 µM); in the assay with P. aeruginosa ATCC 27853, 32 µg/mL (≈ 98 µM); in the assay on A. baumannii ATCC 19606, 8 µg/mL (≈ 24.5 µM). Moreover, the MBC with E. coli ATCC 25922 was 8 µg/mL (≈ 24.5 µM); with S. aureus ATCC 29213 it was 16 µg/mL (≈ 49 µM); in [1], 16 µg/mL (≈ 49 µM); in assay [2], 4 µg/mL (≈ 12.3 µM); in the assay with MRSA-2, 8 µg/mL (≈ 24.5 µM); in assay [3] it was 8 µg/mL (≈ 24.5 µM). Also, the MBC in [4] is 8 µg/mL (≈ 24.5 µM); in the assay with MRSA-1, 16 µg/mL (≈ 49 µM); in assay [5] it was 4 µg/mL (≈ 12.3 µM); in the assay on E. faecium ATCC 35667, 16 µg/mL (≈ 49 µM); with P. aeruginosa ATCC 27853, over 32 µg/mL; in the assay on A. baumannii ATCC 19606 it was 16 µg/mL (≈ 49 µM).
For `[H]/N=C(\N)NN=C1CCCc2cc(OCc3cccc(F)c3)ccc21` [Compound 1B, (E)-2-(6-((3-fluorobenzyl)oxy)-3,4-dihydronaphthalen-1(2H)-ylidene)hydrazine-1-carboximidamide], the MIC in the assay on E. coli ATCC 25922 amounted to 8 µg/mL (≈ 24.5 µM); with S. aureus ATCC 29213 it was 4 µg/mL (≈ 12.3 µM); in assay [1] it was 16 µg/mL (≈ 49 µM); in assay [2], 4 µg/mL (≈ 12.3 µM); in the assay on MRSA-2, 2 µg/mL (≈ 6.13 µM); in assay [3], 2 µg/mL (≈ 6.13 µM). Besides, the MIC in assay [4] amounted to 2 µg/mL (≈ 6.13 µM); in the assay on MRSA-1, 2 µg/mL (≈ 6.13 µM); in assay [5], 2 µg/mL (≈ 6.13 µM); with E. faecium ATCC 35667 it was 4 µg/mL (≈ 12.3 µM); in the assay with P. aeruginosa ATCC 27853, 32 µg/mL (≈ 98 µM); in the assay on A. baumannii ATCC 19606 it was 8 µg/mL (≈ 24.5 µM). Moreover, the MBC with E. coli ATCC 25922 amounted to 8 µg/mL (≈ 24.5 µM); in the assay with S. aureus ATCC 29213 it was 16 µg/mL (≈ 49 µM); in [1], 16 µg/mL (≈ 49 µM); in assay [2], 4 µg/mL (≈ 12.3 µM); in the assay on MRSA-2 it was 8 µg/mL (≈ 24.5 µM); in assay [3], 8 µg/mL (≈ 24.5 µM). The MBC came to 16 µg/mL (≈ 49 µM) in assay [4]; 8 µg/mL (≈ 24.5 µM) in the assay with MRSA-1; 4 µg/mL (≈ 12.3 µM) in [5]; 16 µg/mL (≈ 49 µM) in the assay on E. faecium ATCC 35667; 32 µg/mL (≈ 98 µM) in the assay on P. aeruginosa ATCC 27853; 16 µg/mL (≈ 49 µM) with A. baumannii ATCC 19606.
For the molecule `[H]/N=C(\N)NN=C1CCCc2cc(OCc3ccc(F)cc3)ccc21` [Compound 1C, (E)-2-(6-((4-fluorobenzyl)oxy)-3,4-dihydronaphthalen-1(2H)-ylidene)hydrazine-1-carboximidamide], the MIC with E. coli ATCC 25922 came to 8 µg/mL (≈ 24.5 µM); in the assay on S. aureus ATCC 29213 it was 4 µg/mL (≈ 12.3 µM); in [1] it was 16 µg/mL (≈ 49 µM); in assay [2], 4 µg/mL (≈ 12.3 µM); with MRSA-2 it was 4 µg/mL (≈ 12.3 µM); in assay [3], 2 µg/mL (≈ 6.13 µM). Further, the MIC in assay [4] came out at 2 µg/mL (≈ 6.13 µM); in the assay on MRSA-1, 2 µg/mL (≈ 6.13 µM); in [5] it was 2 µg/mL (≈ 6.13 µM); in the assay on E. faecium ATCC 35667 it was 4 µg/mL (≈ 12.3 µM); in the assay on P. aeruginosa ATCC 27853, 32 µg/mL (≈ 98 µM); with A. baumannii ATCC 19606, 8 µg/mL (≈ 24.5 µM). Moreover, the MBC in the assay with E. coli ATCC 25922 was found to be 8 µg/mL (≈ 24.5 µM); with S. aureus ATCC 29213 it was 16 µg/mL (≈ 49 µM); in assay [1], 16 µg/mL (≈ 49 µM); in [2] it was 4 µg/mL (≈ 12.3 µM); in the assay with MRSA-2 it was 8 µg/mL (≈ 24.5 µM); in [3], 8 µg/mL (≈ 24.5 µM). Moreover, the MBC in assay [4] stood at 8 µg/mL (≈ 24.5 µM); in the assay with MRSA-1, 16 µg/mL (≈ 49 µM); in [5] it was 4 µg/mL (≈ 12.3 µM); in the assay on E. faecium ATCC 35667 it was 16 µg/mL (≈ 49 µM); in the assay with P. aeruginosa ATCC 27853, 32 µg/mL (≈ 98 µM); in the assay with A. baumannii ATCC 19606 it was 8 µg/mL (≈ 24.5 µM).
